# Literature values in publication PMC9998351 (Steroids, 2023).
# Tested on: CRPC CWR22Rv1 xenograft tumors
# Conditions: CWR22Rv1 xenograft; 2 at 7.53-fold lower equimolar dose than Gal; p < 0.01; ref [26]; cited from earlier work
smiles,measurement,value
"C[C@]12CC[C@H](O)CC1=CC[C@@H]1[C@@H]2CC[C@]2(C)C(n3cnc4ccccc43)=CC[C@@H]12 [Gal, Galeterone, reference compound]",Suppression of tumor growth,47%
